Data from patent US20140288102A1, “PREVENTION OF RECURRENCES OF URETHRAL STRICTURES FOLLOWING CONVENTIONAL THERAPY” (priority 2007, published 2014).
Several values for one entry are separate records, joined by “and”; a condition that tells them apart may be missing. Equal entries are not always repeated. Entries after “also recorded” stand apart in the source; their conditions may differ.

Columns and labels:
[1] = system: New Zealand male rabbits; experiment: Prevention of the onset of urethral strictures after electrocoagulation of the bulbar urethra (Example 1); assay type: in vivo, rabbit
Description: Near-circumferential, 15 mm long electrocoagulation of the bulbar urethra was performed endoscopically on 20 New Zealand male rabbits using a pediatric resectoscope and a round-ended electrocautery. The rabbits were randomized into 2 groups of 10 animals each. The first group received a diet containing 10 mg/kg of Halofuginone initiated 4 days before electrocoagulation and continued for 3 weeks. The second group received a standard chow, free of Halofuginone. Three weeks after electrocoagulation, the rabbits were examined by video urethrocystoscopy and retrograde urethrocystography and subsequently sacrificed for histological examination. The urethra was removed in one piece and fixed in 10% buffered formaldehyde. The histological examination was performed after the specimens were embedded in paraffin and stained with Masson trichrome, hematoxylin-eosin, and Sirius Red (IMEB, Inc., Chicago, Ill.) in order to evaluate fibrosis. With the latter staining method, collagen appears in red.

[2] = system: New Zealand male rabbits; experiment: Prevention of the recurrence of urethral strictures following endoscopic internal urethrotomy (Example 2); assay type: in vivo, rabbit
Description: Near-circumferential, 15 mm long electrocoagulation of the bulbar urethra was performed endoscopically on 48 New Zealand male rabbits using a pediatric resectoscope and a round-ended electrocautery. Three weeks after electrocoagulation, the urethral strictures were evaluated using video urethrocystoscopy and retrograde urethrocystography. […] The urethral lumen was reduced by 70-95% (mean 88.5%). The obtained strictures were 7 to 19 mm in length (mean 11.7). Endoscopic internal urethrotomy was performed on all surviving rabbits using a cold knife, under visual guidance with a 0.028-inch diameter endoscopic guidewire. A single deep incision was made at the 12 o'clock position in all animals. The rabbits were subsequently randomized into 2 groups: one study group receiving Halofuginone for 10 weeks starting on the day of the urethrotomy, and one control group without Halofuginone. The study group was fed on a diet containing 10 mg/kg of Halofuginone, whereas the control group received a normal, Halofuginone-free diet. The rabbits were then monitored and evaluated for urethral strictures if any of the following signs appeared: decrease in 24-hour urine output, anorexia, worsening of general health status with palpable bladder distension. In the absence of any of these signs, the animals were systematically evaluated for urethral strictures 10 weeks after urethrotomy. This evaluation was performed using video urethrocystoscopy and retrograde urethrocystography. Thereafter, the rabbits were sacrificed for histological examination. The entire urethra was removed and fixed in 10% buffered formaldehyde. The histological examination was performed after the specimens had been embedded in paraffin and stained with Masson trichrome, hematoxylin-eosin, and Sirius Red (IMEB, Inc., Chicago, Ill.) in order to evaluate fibrosis. With the latter staining method, collagen appears in red.

[3] = the 2 treated rabbits with significant stricture, 3 weeks after electrocoagulation

## O=C(CC1NCCC[C@H]1O)Cn1cnc2cc(Br)c(Cl)cc2c1=O (stereo partly drawn) [Halofuginone]
[1]; 10 rabbits, diet containing 10 mg/kg Halofuginone from 4 days before electrocoagulation, continued 3 weeks, evaluated at 3 weeks, control 10 of 10, p<0.001
  Nr. of urethral strictures (rabbits with significant urethral stricture): 2
[1]; of 10 treated rabbits, 3 weeks after electrocoagulation
  number of rabbits with normal urethra: 6
[1]; [3]
  length of the significant strictures: 10 mm and 8 mm
  reduction in urethral lumen caliber in the significant strictures: 70% and 90%
[1]; treated rabbits without significant stricture
  histological study of the urethra (fibrosis): only focal alterations, with limited areas of fibrosis alternating with subnormal or normal urethral walls
[1]; two other treated rabbits, 3 weeks after electrocoagulation
  narrowing of the urethral lumen: less than 30%
[2]; a rabbit of the study group, 10 weeks after internal urethrotomy, FIG. 2B
  retrograde urethrocystogram of the bulbar urethra: no recurrent stricture was seen
[2]; diet containing 10 mg/kg Halofuginone for 10 weeks from day of urethrotomy, control 14/19, P 0.005
  Post-urethrotomy recurrent stricture, Nr./total Nr.: 5/18
[2]; diet containing 10 mg/kg Halofuginone for 10 weeks from day of urethrotomy, control 73, P 0.005
  Post-urethrotomy recurrent stricture (%): 27%
[2]; of 18 rabbits, control 2 of 19
  Nr. according to extent of histological fibrosis: Moderate to severe: 1
[2]; of 18 rabbits, control 5 of 19
  Nr. according to extent of histological fibrosis: Mild or absent: 13
[2]; of 18 rabbits, control 12 of 19
  Nr. according to extent of histological fibrosis: Severe: 4
[2]; rabbits with no recurrence of stricture, FIG. 3
  histological study of the site of the prior urethrotomy (fibrosis): no fibrosis or minimal fibrosis; also recorded: minimal fibrosis
[2]; recurrent strictures in Halofuginone group, control 11.4
  Post-urethrotomy recurrent stricture, average length: 7.2 mm
[2]; recurrent strictures in Halofuginone group, control 82.9
  Post-urethrotomy recurrent stricture, average reduction of lumen: 92%
[2]; study group
  number of rabbits with recurrent stricture diagnosed at the 10-week evaluation: 2
[2]; study group, 18 evaluable rabbits
  number of rabbits that developed no recurrence of urethral stricture: 13
[2]; study group, before the 10-week evaluation
  number of rabbits with recurrence suspected on clinical signs and confirmed radiologically and endoscopically: 3
